Experiments:
KRAS G12D = KRAS G12D (Homo sapiens, UniProt P01116, G12D); experiment: SOS-catalyzed nucleotide exchange assay, KRAS G12D (Procedure A); assay type: biochemical; conditions: guanine nucleotide exchange (GNE)
Outline: (§1)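 Compounds in 10-point 3-fold series sat 60 min with biotin-KRAS/Bodipy-GDP/Tb-streptavidin complex, then human SOS and 3 mM GTP were added. G13D: 1.25 nM KRAS, no SOS, 30 min. WT and G12D: 1 nM with 40 nM SOS, 60 min. G12C (C51S/C80L/C118S): 3 nM/40 nM, 60 min. Curves fitted from normalised TR-FRET 520/495 ratio.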

KRAS WT = KRAS WT (Homo sapiens, UniProt P01116); experiment: SOS-catalyzed nucleotide exchange assay, KRAS WT (Procedure A); assay type: biochemical; conditions: GNE
Outline: as §1

KRAS G12V = KRAS G12V (Homo sapiens, UniProt P01116, G12V); experiment: SOS-catalyzed nucleotide exchange assay, KRAS G12V (Procedure A); assay type: biochemical; conditions: GNE
Outline: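 Biotinylated KRAS G12V was loaded with Bodipy-GDP alongside Terbium-streptavidin to form a TR-FRET complex, which was preincubated with compounds for 60 minutes in 384-well plates. Human SOS protein and unlabeled GTP were then added for 90 minutes, giving final concentrations of 1.25 nM KRAS-G12V, 160 nM SOS and 3 mM GTP. The 520/495 nm emission ratio was read on an Envision.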

NRAS = NRAS (Homo sapiens, UniProt P01111); experiment: SOS-catalyzed nucleotide exchange assay, NRAS (Procedure A); assay type: biochemical; conditions: GNE
Text: (§2) Procedure for SOS-Catalyzed Nucleotide Exchange Assay for KRAS-WT, G12C/D/V, G13D, HRAS, and NRAS (Procedure A)
(§3) Recombinant KRAS-G12C protein used in this assay has an additional triple mutation (C51S/C80L/C118S). Whereas KRAS-WT, G12D/V, G13D, HRAS and NRAS are in context of their WT protein sequence background. Specifically, the SOS-catalyzed nucleotide exchange assay utilizes a preformed TR-FRET complex containing a specific biotinylated RAS protein (KRAS-WT, G12C/V/D, G13D, HRAS, NRAS; described above) with Bodipy-GDP, and Terbium-streptavidin. Compounds are preincubated with this complex for 60 minutes. Subsequently, recombinant human SOS protein and unlabeled GTP are added to initiate the exchange reaction. Small molecule inhibitors stabilize the Bodipy-GDP complex whereas the untreated protein rapidly exchanges Bodipy-GDP for unlabeled GTP resulting in reduced TR-FRET signal.
(§4) To assemble the preformed TR-FRET complexes, each biotinylated RAS protein is diluted to 2 μM in an EDTA Buffer (20 mM HEPES pH 7.5, 50 mM sodium chloride, 10 mM EDTA, and 0.01% Tween) and incubated at room temperature for one hour. This mixture is then further diluted to 90 nM in an Assay Buffer (20 mM HEPES pH 7.5, 150 mM sodium chloride, 10 mM magnesium chloride, and 0.005% Tween) containing 15 nM of Terbium-Streptavidin (Invitrogen, catalog #PV3577) and 900 nM of Bodipy-GDP (Invitrogen, catalog #G22360) and incubated at room temperature for six hours. It should be noted that this preformed TR-FRET complex for each of the RAS protein were made ahead of time, aliquoted and stored at −80° C. until the day of the experiment.
(§5) Each test compound (10 mM stock in DMSO) is diluted in DMSO to make a final-10-point, 3-fold dilution and is acoustically dispensed into a 384-well assay plate (Corning, catalog #3820) using an Echo 550 (Labcyte). Each well of the assay plate receives 3 μL of a specific 3×RAS preformed TR-FRET complex and 3 μL of Assay Buffer and is incubated at room temperature for 60 minutes (preincubation time). Each well then receives 3 μL of 3× recombinant human SOS protein and GTP (Sigma, G8877) in Assay Buffer and is incubated at room temperature for 30 minutes (G13D), 60 minutes (KRAS WT/G12C/D, H/NRAS) or 90 minutes for G12V. The final reaction in each well of 9 μL consists of 3 mM GTP, specific Ras and SOS proteins in the following concentrations: KRAS-G12C/SOS=3 nM/40 nM, KRAS-WT and G12D/SOS=1 nM/40 nM, KRAS-G12V/SOS=1.25 nM/160 nM, KRAS-G13D/SOS=1.25 nM/0 nM, HRAS and NRAS=1.25 nM/40 nM.
(§6) The time-resolved fluorescence resonance energy transfer (TR-FRET) signal is measured on an Envision (PerkinElmer) plate reader: Excitation filter=340 nm; emission1=495 nm; emission2=520 nm; dichroic mirror=D400/D505; delay time=[…]. The signal of each well is determined as the ratio of the emission at 520 nm to that at 495 nm. Percent effect of each well is determined after normalization to control wells containing DMSO (no effect) or a saturating concentration of inhibitor (max effect). The apparent effect as a function of compound concentration is fit to a four-parameter logistic equation.
(§7) For Example No. 14, nucleotide exchange assays for KRAS G12D, WT, G12C, and G12V were performed according to Procedure B. All the other compounds were tested according to Procedure A.

HRAS = HRAS (Homo sapiens, UniProt P01112); experiment: SOS-catalyzed nucleotide exchange assay, HRAS (Procedure A); assay type: biochemical; conditions: GNE
Text: as §2, §3, §4, §5, §6, §7

AsPC-1 cells = target: T1, AsPC-1 cells (Homo sapiens, UniProt P01116, G12D); experiment: Cellular phospho-ERK assay, AsPC-1 cells (KRAS G12D); assay type: cell-based; conditions: 2 hours, read-out: AsPC1 pERK IC50
T1 construct: p-ERK/total ERK AlphaSureFire read-out
Outline: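 Compound was titrated 10-point in 3-fold steps (top 30 μM) on KRAS G12D homozygous pancreatic lines PANC08.13 and AsPC-1 for 2 h at 37 °C. The p-ERK/total ERK ratio was measured by multiplex AlphaLISA SureFire and fitted with a 4-parameter logistic model to give IC50.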

KRAS G13D = KRAS G13D (Homo sapiens, UniProt P01116, G13D); experiment: SOS-catalyzed nucleotide exchange assay, KRAS G13D (Procedure A); assay type: biochemical; conditions: GNE
Text: as §2, §3, §4, §5, §6, §7

KRAS G12C = KRAS G12C (Homo sapiens, UniProt P01116, C118S/C51S/C80L/G12C); experiment: SOS-catalyzed nucleotide exchange assay, KRAS G12C (Procedure A); assay type: biochemical; conditions: GNE
Text: as §2, §3, §4, §5, §6, §7

Sequence of KRAS G12V (P01116 with tags, fused parts or gaps isoform P01116-2 G12V): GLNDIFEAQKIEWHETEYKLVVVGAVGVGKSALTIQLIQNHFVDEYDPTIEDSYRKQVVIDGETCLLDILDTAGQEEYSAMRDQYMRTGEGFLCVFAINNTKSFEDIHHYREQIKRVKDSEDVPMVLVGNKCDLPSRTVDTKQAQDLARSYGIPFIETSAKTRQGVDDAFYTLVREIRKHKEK
Sequence of KRAS G13D (P01116 with tags, fused parts or gaps isoform P01116-2 G13D): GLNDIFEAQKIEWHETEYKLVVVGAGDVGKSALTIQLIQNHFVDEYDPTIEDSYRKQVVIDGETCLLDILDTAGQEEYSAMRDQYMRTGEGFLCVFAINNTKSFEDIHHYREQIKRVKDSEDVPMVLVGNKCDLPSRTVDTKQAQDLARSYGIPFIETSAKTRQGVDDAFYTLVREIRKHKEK
T1 sequence (P01116 1-188 isoform P01116-2 G12D): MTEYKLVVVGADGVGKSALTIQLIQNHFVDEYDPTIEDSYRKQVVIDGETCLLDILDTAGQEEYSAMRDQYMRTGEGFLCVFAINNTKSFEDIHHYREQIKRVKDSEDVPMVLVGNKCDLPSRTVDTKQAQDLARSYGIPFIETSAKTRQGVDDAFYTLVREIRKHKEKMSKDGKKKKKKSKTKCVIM
Sequence of HRAS (P01112 with tags, fused parts or gaps): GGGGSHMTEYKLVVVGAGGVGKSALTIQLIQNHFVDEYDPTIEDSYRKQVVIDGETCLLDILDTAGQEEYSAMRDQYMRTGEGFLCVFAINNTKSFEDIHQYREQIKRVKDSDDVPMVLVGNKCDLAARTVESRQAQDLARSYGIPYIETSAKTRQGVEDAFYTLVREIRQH
Sequence of KRAS G12C (P01116 with tags, fused parts or gaps isoform P01116-2 G12C/C51S/C80L/C118S): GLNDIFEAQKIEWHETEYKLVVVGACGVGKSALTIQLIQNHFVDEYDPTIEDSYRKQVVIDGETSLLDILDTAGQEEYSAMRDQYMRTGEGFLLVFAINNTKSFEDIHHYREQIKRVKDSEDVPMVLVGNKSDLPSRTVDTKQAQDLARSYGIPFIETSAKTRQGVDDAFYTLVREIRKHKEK
Sequence of NRAS (P01111 with tags, fused parts or gaps): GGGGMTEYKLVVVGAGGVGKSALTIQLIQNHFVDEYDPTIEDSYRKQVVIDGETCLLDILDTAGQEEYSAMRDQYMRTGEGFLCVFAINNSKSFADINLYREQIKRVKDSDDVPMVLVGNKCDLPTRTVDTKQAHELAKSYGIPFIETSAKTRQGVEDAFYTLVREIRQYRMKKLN
Sequence of KRAS WT (P01116 with tags, fused parts or gaps isoform P01116-2): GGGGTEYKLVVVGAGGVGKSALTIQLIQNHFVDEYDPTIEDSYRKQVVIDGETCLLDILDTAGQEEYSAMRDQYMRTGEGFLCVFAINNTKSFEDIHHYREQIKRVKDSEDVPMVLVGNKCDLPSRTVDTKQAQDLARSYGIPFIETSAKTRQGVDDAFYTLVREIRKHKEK
Sequence of KRAS G12D (P01116 with tags, fused parts or gaps isoform P01116-2 G12D): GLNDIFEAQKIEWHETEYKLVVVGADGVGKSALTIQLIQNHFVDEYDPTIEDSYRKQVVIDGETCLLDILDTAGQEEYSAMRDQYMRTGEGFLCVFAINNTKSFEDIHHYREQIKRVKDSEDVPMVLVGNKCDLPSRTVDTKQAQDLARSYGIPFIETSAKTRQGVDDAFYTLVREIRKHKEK

Row | SMILES | IC50 (KRAS G12D) | IC50 (KRAS WT) | IC50 (KRAS G12V) | IC50 (NRAS) | IC50 (HRAS) | IC50 (AsPC-1 cells) | IC50 (KRAS G13D) | IC50 (KRAS G12C)
1 | Cc1cc2[nH]ncc2c(-c2nccc3c2sc2nc(OC[C@@]45CCCN4C[C@H](F)C5)nc(N4CC5COCC(C4)N5)c23)c1C(F)(F)F [Ex-65, 7-(2-(((2R,7aS)-2-fluorotetrahydro-1H-pyrrolizin-7a(5H)-yl)methoxy)-8-(6-methyl-5-(trifluoromethyl)-1H-indazol-4-yl)pyrido[4′,3′:4,5]thieno[2,3-d]pyrimidin-4-yl)-3-oxa-7,9-diazabicyclo[3.3.1]nonane] | 0.128 µM | 8.79 µM | > 11.1 µM | > 11.1 µM | > 11.1 µM | 1.7 µM | 2.74 µM | 1.96 µM
2 | Clc1cc2[nH]ncc2c(-c2nccc3c2sc2nc(OCC45CCOC(CO4)C5)nc(N4C[C@H]5CC[C@@H](C4)N5)c23)c1C1CC1 [Ex-22, 2-((2,6-dioxabicy-clo[3.2.1]octan-5-yl)methoxy)-4-((1R,5S)-3,8-diazabicy-clo[3.2.1]octan-3-yl)-8-(6-chloro-5-cyclopropyl-1H-indazol-4-yl)pyrido [4′,3′:4,5]thi-eno[2,3-d]pyrimidine] | 2.73 µM | > 11.1 µM | > 11.1 µM | > 11.1 µM | > 11.1 µM | 10 µM | 9.11 µM | > 11.1 µM
3 | CN(C)C[C@@]1(COc2nc(N3C[C@H]4CC[C@@H](C3)N4)c3c(n2)sc2c(-c4c(C5CC5)c(Cl)cc5[nH]ncc45)nccc23)CC1(F)F [Ex-21, 1-((1R)-1-(((4-((1R,5S)-3,8-diazabicy-clo[3.2.1]octan-3-yl)-8-(6-chloro-5-cyclopropyl-1H-indazol-4-yl)pyrido [4′,3′:4,5]thieno [2,3-d]pyrimidin-2-yl)oxy)methyl)-2,2-difluoro-cyclopropyl)-N,N-dimethyl-methanamine] | 0.00789 µM | 2.8 µM | 5 µM | > 11.1 µM | > 11.1 µM | 0.612 µM | 0.486 µM | 0.457 µM
4 | Cc1cc2[nH]ncc2c(-c2nccc3c2sc2nc(OCC4(C)CNC(=O)C4)nc(N4C[C@H]5CC[C@@H](C4)N5)c23)c1C(F)(F)F (stereo partly drawn) [Ex-37, 4-(((4-((1R,5S)-3,8-diazabicyclo[3.2.1]octan-3-yl)-8-(6-methy1-5-(trifluoromethyl)-1H-indazol-4-yl)pyrido[4′,3′:4,5]thieno[2,3-d]pyrimidin-2-yl)oxy)methyl)-4-methylpyrrolidin-2-one] | 1.28 µM | > 11.1 µM | > 11.1 µM | > 11.1 µM | > 11.1 µM | > 30 µM | > 11.1 µM | > 11.1 µM
5 | CC12CC(COc3nc(N4C[C@H]5CC[C@@H](C4)N5)c4c(n3)sc3c(-c5c(C6CC6)c(Cl)cc6[nH]ncc56)nccc34)(CO1)C2 [Ex-23, 4-((1R,5S)-3,8-diazabicy-clo[3.2.1]octan-3-yl)-8-(6-chloro-5-cyclopropyl-1H-indazol-4-yl)-2-(((1R,4r)-1-methyl-2-oxabicy-clo[2.1.1]hex-an-4-yl)methoxy)pyri-do[4′,3′:4,5]thi-eno[2,3-d]pyrimi-dine] | 1.97 µM | > 11.1 µM | > 11.1 µM | > 11.1 µM | > 11.1 µM | 8.11 µM | > 11.1 µM | > 11.1 µM
6 | Cc1cc2[nH]ncc2c(-c2nccc3c2sc2nc(OC[C@]4(C#N)C[C@H]4S(C)(=O)=O)nc(N4C[C@H]5CC[C@@H](C4)N5)c23)c1C(F)(F)F [Ex-32, (1R,2R)-1-(((4-((1R,5S)-3,8-diazabicyclo[3.2.1]octan-3-yl)-8-(6-methyl-5-(trifluoromethyl)-1H-indazol-4-yl)pyrido[4′,3′:4,5]thieno[2,3-d]pyrimidin-2-yl)oxy)methyl)-2-(methylsulfonyl)cyclopropane-1-carbonitrile] | 1.02 µM | > 11.1 µM | > 11.1 µM | > 11.1 µM | > 11.1 µM | > 30 µM | > 11.1 µM | > 11.1 µM
7 | Cc1cc2[nH]ncc2c(-c2nccc3c2sc2nc(OC[C@@]45CCCN4C[C@H](F)C5)nc(N4C[C@@H]5C[C@H]4CN5)c23)c1C(F)(F)F [Ex-69, 4-((1S,4S)-2,5-diazabicyclo[2.2.1]heptan-2-yl)-2-(((2R,7aS)-2-fluorotetrahydro-1H-pyrrolizin-7a(5H)-yl)methoxy)-8-(6-methyl-5-(trifluoromethyl)-1H-indazol-4-yl)pyrido[4′,3′:4,5]thieno[2,3-d]pyrimidine] | 0.0356 µM | 4.91 µM | > 11.1 µM | > 11.1 µM | > 11.1 µM | 1.54 µM | 1.21 µM | 1.74 µM
8 | Cc1cc2[nH]ncc2c(-c2nccc3c2sc2nc(OCC4(S(C)(=O)=O)CC4)nc(N4C[C@H]5CC[C@@H](C4)N5)c23)c1C(F)(F)F [Ex-33, 4-((1R,5S)-3,8-diazabicyclo[3.2.1]octan-3-yl)-8-(6-methyl-5-(trifluoromethyl)-1H-indazol-4-yl)-2-((1-(methylsulfonyl)cyclopropyl)meth-oxy)pyrido[4′,3′:4,5]thieno[2,3-d]pyrimidine] | 7.97 µM | > 11.1 µM | > 11.1 µM | > 11.1 µM | > 11.1 µM | 20.2 µM | > 11.1 µM | > 11.1 µM
9 | Cc1cc2[nH]ncc2c(-c2nccc3c2sc2nc(OCC4(C)CS(=O)(=O)C4)nc(N4C[C@H]5CC[C@@H](C4)N5)c23)c1C(F)(F)F [Ex-39, 3-(((4-((1R,5S)-3,8-diazabicyclo[3.2.1]octan-3-yl)-8-(6-methyl-5-(trifluoromethyl)-1H-indazol-4-yl)pyrido[4′,3′:4,5]thieno[2,3-d]pyrimidin-2-yl)oxy)methyl)-3-methylthietane 1,1-dioxide] | 2.42 µM | > 11.1 µM | > 11.1 µM | > 11.1 µM | > 11.1 µM | 12.8 µM | > 11.1 µM | > 11.1 µM

Source: patent publication US20260347372A1, “SMALL MOLECULE INHIBITORS OF KRAS G12D MUTANT” (MERCK SHARP & DOHME LLC, priority 2023, published 2026)
